≈ marks a conversion by molar mass, not a printed value. Read-outs that look alike come from different tables or passages of the source.
Experiments:
[1] = Oral absorption rate (bioavailability) in SD rats; assay type: in vivo; conditions: rat, blood; fasted SD rats; oral 20 mg/kg vs intravenous 2 mg/kg in PEG 400; AUCpo(0-48 h)/AUCiv(0-∞), dose-corrected; read-out: BA (bioavailability)
Procedure: A test compound in polyethylene glycol 400 (PEG 400) was administered either orally (4 animals) or intravenously into the caudal vein (3 animals) of SD rats (age 7 weeks) which had fasted overnight. The oral dose of the test compound was 20 mg per kg of rat body weight. The intravenous dose of the test compound injected into the caudal vein was 2 mg per kg of rat body weight. The amount of PEG 400 used was 1 ml per kg of rat body weight for both oral and intravenous administration. The bioavailability (BA) values were calculated according to the following equation using the integrated values of the blood concentration of the test compound up to 48 hours after oral administration [AUCpo(0-48 h)], and the integrated values of the blood concentration extrapolated from 0 to infinite time after intravenous administration into the caudal vein [AUCiv(0-∞)].
BA(%)={[(AUCpo(0-48))/(dosepo)]/[(AUCiv(0-∞))/(doseiv)]}×100
The larger the value of BA, the higher the oral absorption rate. The results for the compound of formula (Ib) of the present invention and those for Comparative Compounds A, B and C are shove in Table 3.

[2] = system: Cryptococcus neoformans TIMM 0362; test: In vitro antifungal activity, MIC by broth microdilution (Cryptococcus neoformans); assay type: cell-based; conditions: TIMM0362, lowest concentration causing at least 50% growth inhibition (absorbance 485 nm), yeast nitrogen base pH 7.0, 35° C., 48-72 hours, read-out: MIC value C.n.
Procedure: (§1) The antifungal activities of test compounds were assessed according to their minimum inhibitory concentrations (MICs) which were measured by the methods described below.
1(ii) Measurement Method for Cryptococcus neoformans
A modified version of the Broth Dilution Antifuinal Susceptibility Testing of Yeast; Approved Standard M27-A (Vol. 17, No. 9, June 1997, NCCLS) was used, MICs being determined by the broth microdilution method. Each test compound was dissolved in DMSO. Serial two-fold dilutions of each compound were prepared with DMSO and final dilutions were prepared with yeast nitrogen base medium (product of Difco Laboratories) buffered to pH 7.0 with 0.165 M MOPS. […] Colonies of the test fungi were suspended in physiological saline followed by adjustment to 5.0×10^3 to 2.5×10^4 cells/ml with yeast nitrogen base medium buffered to pH 7.0 with 0.165 M MOPS. 100 μl of the fungal suspension were added to each of the wells of microtitre plates and then 100 μl of each diluted test compound were added to one of said wells and mixed with the fungal suspension therein, before incubating at 35° C. for 48-72 hours. […] The MICs were defined as the lowest compound concentrations causing at least 50% growth inhibition when compared with the control as measured by light absorbance at 485 nm.
e) C.n.: Cryptococcus neoformans TIMM 0362.

[3] = Acid stability test (half-life in 0.01 N HCl); assay type: physicochemical; conditions: 0.01 N HCl (pH 2.0), initial 50 μg/ml, 37° C., HPLC, read-out: t1/2, stability in acidic solution
Procedure: A small amount of the solution was taken from the reaction solution at predetermined time intervals and the reaction was stopped in these samples by neutralizing with an aqueous sodium hydroxide solution. Quantitative determination of the residual rate of the test compound in the solution was determined by HPLC.
The half-life (t½) of the test compound in 0.01 N HCl was determined according to the following equation using the degradation rate constant kdeg which was determined by semi-logarithmic regression analysis of the residual rate in the solution.

[4] = system: Canadida albicans TIMM 3164; test: In vitro antifungal activity, MIC by broth microdilution (Candida species); assay type: cell-based; conditions: TIMM3164, lowest concentration causing at least 80% growth inhibition, RPMI1640 pH 7.0, 35° C., 24-72 hours, read-out: MIC value C.a. (2)
Procedure: as §1
(§2) 1(i) Measurement Method for Candida Species
(§3) A modified version of the procedure described in Japanese Journal of Medical Mycology, 36, 62 (1995) was used, MICs being determined by the broth microdilution method. Each test compound was dissolved in dimethyl sulfoxide (DMSO). Serial two-fold dilutions of each compound were prepared with DMSO and then final dilutions were prepared with RPMI1640 medium (product of Dainippon Pharmaceutical Co., Ltd.) which was buffered to pH 7.0 with 0.165 M 3-(morpholino)propanesulfonic acid (MOPS). […] Colonies of the test fungi were suspended in physiological saline followed by adjustment to 5.0×10^2 to 2.5×10^3 cells/ml with RPM11640 medium which was buffered to pH 7.0 with 0.165 M MOPS. 100 μl of the fungal suspension were added to each of the wells of microtitre plates and then 100 μl of each diluted test compound were added to one of said wells and mixed with the fungal suspension therein, before incubating at 35° C. for 24-72 hours. […] The MICs were defined as the lowest compound concentrations causing at least 80% growth inhibition when compared with the control.
c) C.a. (2): Canadida albicans TIMM 3164.

[5] = system: Aspergillus fumigatus SANK 10569; test: In vitro antifungal activity, MIC by broth microdilution (Aspergillus species); assay type: cell-based; conditions: SANK10569, lowest concentration causing at least 80% growth inhibition, RPMI1640 pH 7.0, 30° C., 24-72 hours, read-out: MIC value A.f.
Procedure: The antifungal activities of test compounds were assessed according to their minimum inhibitory concentrations (MICs) which were measured by the methods described below. 1(iii) Measurement Method for Aspergillus Species A modified version of the protocol in Antimicrob. Agents Chemother., 39, 314 (1995) was used, MICs being determined by the broth microdilution method. Test compounds were dissolved in dimethyl sulfoxide (DMSO). Serial two-fold dilutions of each compound were prepared with DMSO and then final dilutions were prepared with RPMI1640 medium (product of Dainippon Pharmaceutical Co., Ltd.) buffered to pH 7.0 with 0.165 M MOPS.

[6] = system: Canadida albicans TIMM 3165; test: In vitro antifungal activity, MIC by broth microdilution (Candida species); assay type: cell-based; conditions: TIMM3165, lowest concentration causing at least 80% growth inhibition, RPMI1640 pH 7.0, 35° C., 24-72 hours, read-out: MIC value C.a. (3)
Procedure: as §1, §2, §3
d) C.a. (3): Canadida albicans TIMM 3165.

[7] = system: Canadida albicans ATCC 64550; test: as above; assay type: cell-based; conditions: ATCC64550, lowest concentration causing at least 80% growth inhibition, RPMI1640 pH 7.0, 35° C., 24-72 hours, read-out: MIC value C.a. (1)
Procedure: as §1, §2, §3
b) C.a. (1): Canadida albicans ATCC 64550.

[8] = 0.01 N hydrochloric acid with 30% acetonitrile

Row | Structure (SMILES) | bioavailability [1] [%] | MIC [2] [µg/mL] | half-life at 50 μg/ml [3, 8] [min] | MIC [4] [µg/mL] | MIC [5] [µg/mL] | MIC [6] [µg/mL] | MIC [7] [µg/mL] | half-life at 50 μg/ml ([3]; buffer, 30% acetonitrile) [min]
1 | C[C@@H](S[C@H]1CO[C@H](/C=C/C=C/c2ccc(C#N)cc2)OC1)[C@](O)(Cn1cncn1)c1ccc(F)cc1F [Comparative Compound (A), (2R,3R)-3-[[trans-2-[(1E,3E)-4-(4-Cyanophenyl)-1,3-butadien-1-yl]-1,3-dioxan-5-yl]thio]-2-(2,4-difluorophenyl)-1-(1H-1,2,4-triazol-1yl)-2-butanol] | 50.7 | 0.016 (≈ 0.0305 µM) | 3.12 | 0.016 (≈ 0.0305 µM) | 0.031 (≈ 0.0591 µM) | 0.125 to 0.25 (≈ 0.238 to 0.477 µM) | 0.5 to 1 (≈ 0.953 to 1.91 µM) | –
2 | C[C@@H](S[C@H]1CO[C@H](/C=C/C=C/c2ccc(F)cc2F)OC1)[C@](O)(Cn1cncn1)c1ccc(F)cc1F [Comparative Compound (B)] | 6.24 | ≤ 0.008 | 1.54 | 0.031 to 0.063 (≈ 0.0579 to 0.118 µM) | 0.125 (≈ 0.233 µM) | 0.125 to 0.25 (≈ 0.233 to 0.467 µM) | 0.5 (≈ 0.934 µM) | –
3 | CC(C[C@H]1CO[C@H](/C=C/C=C/c2ccc(C#N)cc2F)OC1)C(O)(Cn1cncn1)c1ccc(F)cc1F (some centres unmarked) [Comparative Compound (C)] | 57.8 | – | 2.42 | – | – | – | – | –
4 | C[C@@H](S[C@H]1CO[C@H](/C=C/C=C/c2ccc(C#N)cc2F)OC1)[C@](O)(Cn1cncn1)c1ccc(F)cc1F [Compound (Ib), (2R,3R)-3-[[trans-2-[(1E,3E)-4-(4-Cyano-2-fluorophenyl)-1,3-butadien-1-yl]-1,3-dioxan-5-yl]thio]-2-(2,4-difluorophenyl)-1-(1H-1,2,4-triazol-1-yl)-2-butanol] | 123 | ≤ 0.008 | – | ≤ 0.008 | 0.031 (≈ 0.0571 µM) | 0.063 (≈ 0.116 µM) | 0.25 (≈ 0.461 µM) | 6.4

Source: US6392082B1, “Triazole derivatives having antifungal activity” (Sankyo Company, Limited, priority 1999, dated 2002)
